Like-named read-outs stand apart in the source and are kept apart here.
Experiments:
hippocampus neurons = assay: inhibition of reduction in survival rate of neurons, hippocampus (number of surviving cells); format: cell-based, rat; conditions: for viability at 10 µg/mL / viability at 1 µg/mL / viability at 0.1 µg/mL / viability at 0.01 µg/mL / viability at 0.001 µg/mL: Rattus norvegicus, Neuron, 72 h, control 100%; for viability at 10 µg/mL: 10^-5 g/ml; for viability at 1 µg/mL: 10^-6 g/ml; for viability at 0.1 µg/mL: 10^-7 g/ml; for viability at 0.01 µg/mL: 10^-8 g/ml; for viability at 0.001 µg/mL: 10^-9 g/ml
Method: (§1) From a rat at the 18th day of pregnancy (having an 18 -day old embryo) the uterus was aseptically removed under etherification, and the fetus was obtained. The whole brain was collected from the fetus. From the brain placed in an L-15 medium were removed under a microscope the hippocampus, striate body, septum, cerebral cortex, and cerebellum. They were respectively minced with a knife. The minced tissue was treated by the addition of trypsin (0.25%) and DNase (0.01%) for 30 minutes at 37° C. to thereby isolate cells. The thus-isolated cells were suspended in Eagle's MEM medium supplemented with 10% fetal calf serum, and inoculated at a concentration of 4×10^4 cells/cm^2 into wells of a 48-well plate which had been coated with poly-L-lysin in advance. Following incubation for 24 hours, the medium was replaced by a serum-free DMEM/F-12 medium containing the drug. After three-days' additional incubation (six days for the striate body), the cells were fixed, stained, and the number of surviving cells in each well was counted. Compounds (2) through (14) were tested analogously to Example 1 using hippocampus cells prepared in a manner similar to Example 1. As structural comparative compounds, the following compounds were used: 4H-pyran-4-one (hereinafter referred as Compound (15) and 3-methoxy-6 -hydroxymethyl-4H-pyran-4-one (hereinafter referred to as Compound (16)).

[1] = system: hippocampus cells (neurites); assay: branching promotion effect on neurites; format: cell-based, rat; conditions: one and two days after addition of the drug
Method: The hippocampus cells obtained in a manner similar to that in Example 1 were incubated for 24 hours in a medium containing fetal calf serum, then for a further 24 hours in a serum-free medium. Subsequently, the drug was added. When one day and two days elapsed after addition of the drug, photographs were taken of the same cells. The number of branches from the longest neurite was counted.

[2] = oral toxicity (LD50), mice; conditions: mouse, in vivo, read-out: 50% lethal death (LD50)
cerebellum neurons = assay: inhibition of reduction in survival rate of neurons, cerebellum (number of surviving cells); format: cell-based; conditions: Rattus norvegicus, Neuron, 72 h, 3 days, control 100%
Method: as §1, with “counted.” for “counted. Compounds (2) through (14) were tested analogously to Example 1 using hippocampus cells prepared in a manner similar to Example 1. As structural comparative compounds, the following compounds were used: 4H-pyran-4-one (hereinafter referred as Compound (15) and 3-methoxy-6 -hydroxymethyl-4H-pyran-4-one (hereinafter referred to as Compound (16)).”

septum neurons = assay: inhibition of reduction in survival rate of neurons, septum (number of surviving cells); format: cell-based; conditions: Rattus norvegicus, Neuron, 72 h, 3 days, control 100%
Method: as §1, with “counted.” for “counted. Compounds (2) through (14) were tested analogously to Example 1 using hippocampus cells prepared in a manner similar to Example 1. As structural comparative compounds, the following compounds were used: 4H-pyran-4-one (hereinafter referred as Compound (15) and 3-methoxy-6 -hydroxymethyl-4H-pyran-4-one (hereinafter referred to as Compound (16)).”

brain neurons = assay: inhibition of reduction of brain neurons (overall statement); format: cell-based, rat; conditions: concentration-dependent; activity of control: 100%
Method: as §1, with “counted.” for “counted. Compounds (2) through (14) were tested analogously to Example 1 using hippocampus cells prepared in a manner similar to Example 1. As structural comparative compounds, the following compounds were used: 4H-pyran-4-one (hereinafter referred as Compound (15) and 3-methoxy-6 -hydroxymethyl-4H-pyran-4-one (hereinafter referred to as Compound (16)).”

cerebral cortex neurons = assay: inhibition of reduction in survival rate of neurons, cerebral cortex (number of surviving cells); format: cell-based; conditions: Rattus norvegicus, Cerebral cortex neuron, 72 h, 3 days, control 100%
Method: as §1, with “counted.” for “counted. Compounds (2) through (14) were tested analogously to Example 1 using hippocampus cells prepared in a manner similar to Example 1. As structural comparative compounds, the following compounds were used: 4H-pyran-4-one (hereinafter referred as Compound (15) and 3-methoxy-6 -hydroxymethyl-4H-pyran-4-one (hereinafter referred to as Compound (16)).”

[3] = oral toxicity (LD50), rats; conditions: rat, in vivo, read-out: 50% lethal death (LD50)
striate body neurons = assay: inhibition of reduction in survival rate of neurons, striate body (number of surviving cells); format: cell-based; conditions: Rattus norvegicus, Neuron, 144 h, 6 days, control 100%
Method: as §1, with “counted.” for “counted. Compounds (2) through (14) were tested analogously to Example 1 using hippocampus cells prepared in a manner similar to Example 1. As structural comparative compounds, the following compounds were used: 4H-pyran-4-one (hereinafter referred as Compound (15) and 3-methoxy-6 -hydroxymethyl-4H-pyran-4-one (hereinafter referred to as Compound (16)).”

[4] = read-out: Inhibitory effect against reduction in survival rate of neurons (survival rate class)
[5] = 3 days, read-out: Number of surviving cells, Hippocampus

Cc1cc(=O)c(O)c(CO)o1 [Compound (6), 3-Hydroxy-6-methyl-2-hydroxymethyl-4H-pyran-4-one]
viability at 10 µg/mL (hippocampus neurons; [4]): 110 to 130% | viability at 1 µg/mL (hippocampus neurons; [4]): 110 to 130% | viability at 0.1 µg/mL (hippocampus neurons; [4]): 110 to 130% | viability at 0.01 µg/mL (hippocampus neurons; [4]): 90 to 110% | viability at 0.001 µg/mL (hippocampus neurons; [4]): 90 to 110%

CCCCCc1oc(C)cc(=O)c1O [Compound (5), 3-Hydroxy-6-methyl-2-pentyl-4H-pyran-4-one]
viability at 1 µg/mL (hippocampus neurons; [4]): ≤ 90% | viability at 0.1 µg/mL (hippocampus neurons; [4]): 110 to 130% | viability at 0.01 µg/mL (hippocampus neurons; [4]): 90 to 110% | viability at 0.001 µg/mL (hippocampus neurons; [4]): 90 to 110%

CCCCCc1oc(CO)cc(=O)c1O [Compound (9), 3-Hydroxy-6-hydroxymethyl-2-pentyl-4H-pyran-4-one]
viability at 10 µg/mL (hippocampus neurons; [4]): 110 to 130% | viability at 1 µg/mL (hippocampus neurons; [4]): 90 to 110% | viability at 0.1 µg/mL (hippocampus neurons; [4]): 90 to 110% | viability at 0.01 µg/mL (hippocampus neurons; [4]): 90 to 110% | viability at 0.001 µg/mL (hippocampus neurons; [4]): 90 to 110%

O=c1ccocc1 [Compound (15), 4H-pyran-4-one, reference compound]
viability at 10 µg/mL (hippocampus neurons; [4]): 90 to 110% | viability at 1 µg/mL (hippocampus neurons; [4]): 90 to 110% | viability at 0.1 µg/mL (hippocampus neurons; [4]): 90 to 110% | viability at 0.01 µg/mL (hippocampus neurons; [4]): 90 to 110% | viability at 0.001 µg/mL (hippocampus neurons; [4]): 90 to 110% | inhibitory effect against reduction in survival rate of neurons (in words) (hippocampus neurons; hippocampus cells, Example 2): no inhibitory effect

O=C1C=C(CO)N=CC1O (stereo not shown) [Compound (14), 3-Hydroxy-6-hydroxymethyl-4-pyridone]
viability at 10 µg/mL (hippocampus neurons; [4]): 110 to 130% | viability at 1 µg/mL (hippocampus neurons; [4]): 90 to 110% | viability at 0.1 µg/mL (hippocampus neurons; [4]): 90 to 110% | viability at 0.01 µg/mL (hippocampus neurons; [4]): 90 to 110% | viability at 0.001 µg/mL (hippocampus neurons; [4]): 90 to 110%

CCCCCc1oc(C)c(O)c(=O)c1O [Compound (11), 3,5-Dihydroxy-6-methyl-2-pentyl-4H-pyran-4-one]
viability at 1 µg/mL (hippocampus neurons; [4]): ≤ 90% | viability at 0.1 µg/mL (hippocampus neurons; [4]): 130 to 150% | viability at 0.01 µg/mL (hippocampus neurons; [4]): 90 to 110% | viability at 0.001 µg/mL (hippocampus neurons; [4]): 90 to 110%

O=c1cc(CO)occ1O [Compound (8), 3-Hydroxy-6-hydroxymethyl-4H-pyran-4-one]
viability at 10 µg/mL (hippocampus neurons; [4]): 110 to 130% | viability at 1 µg/mL (hippocampus neurons; [4]): 110 to 130% | viability at 0.1 µg/mL (hippocampus neurons; [4]): 90 to 110% | viability at 0.01 µg/mL (hippocampus neurons; [4]): 90 to 110% | viability at 0.001 µg/mL (hippocampus neurons; [4]): 90 to 110%

CCCCCc1oc(C)c(OC)c(=O)c1O [Compound (1), 3-Hydroxy-6-methyl-5-methoxy-2-pentyl-4H-pyran-4-one]
branching promotion effect on neurites (in words) [1]: confirmed to have a branching promotion effect on neurites | LD50 [2]: ≥ 1000 mg/kg | viability at 1 µg/mL (cerebellum neurons; 10^-6 g/ml): 65.3% | viability at 0.1 µg/mL (cerebellum neurons; 10^-7 g/ml): 147% | viability at 0.01 µg/mL (cerebellum neurons; 10^-8 g/ml): 136% | viability at 0.001 µg/mL (cerebellum neurons; 10^-9 g/ml): 137% | viability at 1 µg/mL (septum neurons; 10^-6 g/ml): 71.6% | viability at 0.1 µg/mL (septum neurons; 10^-7 g/ml): 157% | viability at 0.01 µg/mL (septum neurons; 10^-8 g/ml): 150% | viability at 0.001 µg/mL (septum neurons; 10^-9 g/ml): 128% | concentration range of effect of inhibiting reduction of neurons (brain neurons): 1 to 100 ng/mL | viability at 1 µg/mL (cerebral cortex neurons; 10^-6 g/ml): 90.2% | viability at 0.1 µg/mL (cerebral cortex neurons; 10^-7 g/ml): 125% | viability at 0.01 µg/mL (cerebral cortex neurons; 10^-8 g/ml): 107% | viability at 0.001 µg/mL (cerebral cortex neurons; 10^-9 g/ml): 104% | viability at 1 µg/mL (hippocampus neurons; [5]): 57.8% | viability at 0.1 µg/mL (hippocampus neurons; [5]): 146% | viability at 0.01 µg/mL (hippocampus neurons; [5]): 134% | viability at 0.001 µg/mL (hippocampus neurons; [5]): 109% | LD50 [3]: ≥ 1000 mg/kg | viability at 1 µg/mL (striate body neurons; 10^-6 g/ml): 83.8% | viability at 0.1 µg/mL (striate body neurons; 10^-7 g/ml): 160% | viability at 0.01 µg/mL (striate body neurons; 10^-8 g/ml): 139% | viability at 0.001 µg/mL (striate body neurons; 10^-9 g/ml): 126%

— patent publication US5962480A, “Drug for ameliorating brain diseases” (Wakunaga Pharmaceutical Co., Ltd., priority 1995, dated 1999)
